Measured values: ChEMBL document CHEMBL1152085, “Novel 3-deoxy-3-descladinosyl-6-O-methyl erythromycin a analogues. Synthesis and in vitro activity” (1997)
Converted amounts (≈) assume the structure as drawn.

Key:
Format in all cases: functional
Escherichia coli [1] = assay: Tested in vitro for minimum inhibitory concentration to produce antibacterial activity against Escherichia coli SS
Streptococcus pyogenes [2] = assay: Tested in vitro for minimum inhibitory concentration to produce antibacterial activity against Streptococcus pyogenes PIU 2548
Staphylococcus aureus [3] = assay: Tested in vitro for minimum inhibitory concentration to produce antibacterial activity against Staphylococcus aureus A-5278
Streptococcus pyogenes [4] = assay: Tested in vitro for minimum inhibitory concentration to produce antibacterial activity against Streptococcus pyogenes EES61 in presence of erythromycin A
Streptococcus agalactiae [5] = assay: Tested in vitro for minimum inhibitory concentration to produce antibacterial activity against Streptococcus agalactiae CMX 508
Streptococcus pyogenes [6] = assay: Tested in vitro for minimum inhibitory concentration to produce antibacterial activity against Streptococcus pyogenes PIU 2548 in presence of erythromycin A
Streptococcus agalactiae [7] = assay: Tested in vitro for minimum inhibitory concentration to produce antibacterial activity against Streptococcus agalactiae CMX 508 in presence of erythromycin A
Staphylococcus aureus [8] = assay: Tested in vitro for minimum inhibitory concentration to produce antibacterial activity against Staphylococcus aureus CMX 642A in presence of erythromycin A
Staphylococcus aureus [9] = assay: Tested in vitro for minimum inhibitory concentration to produce antibacterial activity against Staphylococcus aureus ATCC 6538P in presence of erythromycin A
Escherichia coli [10] = assay: Tested in vitro for minimum inhibitory concentration to produce antibacterial activity against Escherichia coli JUHL in presence of erythromycin A
Staphylococcus aureus [11] = assay: Tested in vitro for minimum inhibitory concentration to produce antibacterial activity against Staphylococcus aureus 1775 in presence of erythromycin A
Streptococcus equinus [12] = assay: Tested in vitro for minimum inhibitory concentration to produce antibacterial activity against Streptococcus bovis A-5169
Enterococcus faecium [13] = assay: Tested in vitro for minimum inhibitory concentration to produce antibacterial activity against Enterococcus faecium ATCC 8043
Staphylococcus aureus [14] = assay: Tested in vitro for minimum inhibitory concentration to produce antibacterial activity against Staphylococcus aureus CMX 642A
Enterococcus faecium [15] = assay: Tested in vitro for minimum inhibitory concentration to produce antibacterial activity against Enterococcus faecium ATCC 8043 in presence of erythromycin A
Streptococcus pyogenes [16] = assay: Tested in vitro for minimum inhibitory concentration to produce antibacterial activity against Streptococcus pyogenes EES61
Staphylococcus aureus [17] = assay: Tested in vitro for minimum inhibitory concentration to produce antibacterial activity against Staphylococcus aureus CMX 553
[18] = tested on: Staphylococcus epidermidis; assay: Tested in vitro for minimum inhibitory concentration to produce antibacterial activity against Staphylococcus epidermidis 3519
Staphylococcus aureus [19] = assay: Tested in vitro for minimum inhibitory concentration to produce antibacterial activity against Staphylococcus aureus ATCC 6538P
Streptococcus pyogenes [20] = assay: Tested in vitro for minimum inhibitory concentration to produce antibacterial activity against Streptococcus pyogenes 930
Staphylococcus aureus [21] = assay: Tested in vitro for minimum inhibitory concentration to produce antibacterial activity against Staphylococcus aureus NCTC-10649M in presence of erythromycin A
Staphylococcus aureus [22] = assay: Tested in vitro for minimum inhibitory concentration to produce antibacterial activity against Staphylococcus aureus CMX 553 in presence of erythromycin A
Streptococcus equinus [23] = assay: Tested in vitro for minimum inhibitory concentration to produce antibacterial activity against Streptococcus bovis A-5169 in presence of erythromycin A
Escherichia coli [24] = assay: Tested in vitro for minimum inhibitory concentration to produce antibacterial activity against Escherichia coli JUHL
Streptococcus pyogenes [25] = assay: Tested in vitro for minimum inhibitory concentration to produce antibacterial activity against Streptococcus pyogenes 930 in presence of erythromycin A
Staphylococcus aureus [26] = assay: Tested in vitro for minimum inhibitory concentration to produce antibacterial activity against Staphylococcus aureus 1775
Escherichia coli [27] = assay: Tested in vitro for minimum inhibitory concentration to produce antibacterial activity against Escherichia coli SS in presence of erythromycin A
Staphylococcus aureus [28] = assay: Tested in vitro for minimum inhibitory concentration to produce antibacterial activity against Staphylococcus aureus NCTC-10649M
Staphylococcus aureus [29] = assay: Tested in vitro for minimum inhibitory concentration to produce antibacterial activity against Staphylococcus aureus A-5278 in presence of erythromycin A
Staphylococcus aureus [30] = assay: Tested in vitro for minimum inhibitory concentration to produce antibacterial activity against Staphylococcus aureus A5177 in presence of erythromycin A
[31] = tested on: Staphylococcus epidermidis; assay: Tested in vitro for minimum inhibitory concentration to produce antibacterial activity against Staphylococcus epidermidis 3519 in presence of erythromycin A
Staphylococcus aureus [32] = assay: Tested in vitro for minimum inhibitory concentration to produce antibacterial activity against Staphylococcus aureus A5177

Row | MIC (Staphylococcus aureus [3]) | MIC (Streptococcus pyogenes [4]) | MIC (Streptococcus agalactiae [5]) | MIC (Streptococcus agalactiae [7]) | MIC (Staphylococcus aureus [8]) | MIC (Staphylococcus aureus [9]) | MIC (Staphylococcus aureus [11]) | MIC (Streptococcus equinus [12]) | MIC (Enterococcus faecium [13]) | MIC (Staphylococcus aureus [14]) | MIC (Enterococcus faecium [15]) | MIC (Streptococcus pyogenes [16]) | MIC (Staphylococcus aureus [17]) | MIC [18] | MIC (Staphylococcus aureus [19]) | MIC (Staphylococcus aureus [21]) | MIC (Staphylococcus aureus [22]) | MIC (Streptococcus equinus [23]) | MIC (Staphylococcus aureus [26]) | MIC (Staphylococcus aureus [28]) | further results | Compound
1 | > 100 µg/mL | 0.05 µg/mL | 0.2 µg/mL (≈ 0.34 µM) | 0.05 µg/mL | 0.2 µg/mL | 0.2 µg/mL | > 100 µg/mL | 0.05 µg/mL (≈ 0.0851 µM) | 0.2 µg/mL (≈ 0.34 µM) | 0.39 µg/mL (≈ 0.664 µM) | 0.05 µg/mL | 0.1 µg/mL (≈ 0.17 µM) | 0.2 µg/mL (≈ 0.34 µM) | 0.39 µg/mL (≈ 0.664 µM) | 0.2 µg/mL (≈ 0.34 µM) | 0.2 µg/mL | 0.2 µg/mL | 0.02 µg/mL | > 100 µg/mL | 0.1 µg/mL (≈ 0.17 µM) | MIC (Escherichia coli [1]): 0.39 µg/mL (≈ 0.664 µM); MIC (Streptococcus pyogenes [2]): 0.3 µg/mL (≈ 0.51 µM); MIC (Streptococcus pyogenes [6]): 3.1 µg/mL; MIC (Escherichia coli [10]): 50 µg/mL; MIC (Streptococcus pyogenes [20]): > 100 µg/mL; MIC (Escherichia coli [24]): > 100 µg/mL; MIC (Streptococcus pyogenes [25]): > 100 µg/mL; MIC (Escherichia coli [27]): 0.2 µg/mL; MIC (Staphylococcus aureus [29]): > 100 µg/mL; MIC (Staphylococcus aureus [30]): 1.56 µg/mL; MIC [31]: 0.2 µg/mL; MIC (Staphylococcus aureus [32]): 0.2 µg/mL (≈ 0.34 µM) | CC[C@H]1OC(=O)[C@H](C)C(=O)[C@H](C)[C@@H](O[C@@H]2O[C@H](C)C[C@H](N(C)C)[C@H]2O)[C@](C)(OC)C[C@@H](C)C(=O)[C@H](C)[C@@H](O)[C@]1(C)O
2 | 25 µg/mL (≈ 31.4 µM) | 0.02 µg/mL | 1.56 µg/mL (≈ 1.96 µM) | 0.05 µg/mL | 0.39 µg/mL | 0.39 µg/mL | > 100 µg/mL | 1.56 µg/mL (≈ 1.96 µM) | 1.56 µg/mL (≈ 1.96 µM) | 12.5 µg/mL (≈ 15.7 µM) | 0.05 µg/mL | 1.56 µg/mL (≈ 1.96 µM) | 6.2 µg/mL (≈ 7.8 µM) | 12.5 µg/mL (≈ 15.7 µM) | 12.5 µg/mL (≈ 15.7 µM) | 0.39 µg/mL | 0.39 µg/mL | 0.05 µg/mL | 25 µg/mL (≈ 31.4 µM) | 6.2 µg/mL (≈ 7.8 µM) | MIC (Streptococcus pyogenes [2]): 3.1 µg/mL (≈ 3.9 µM); MIC (Streptococcus pyogenes [6]): 6.2 µg/mL; MIC (Streptococcus pyogenes [20]): 6.2 µg/mL (≈ 7.8 µM); MIC (Streptococcus pyogenes [25]): > 100 µg/mL; MIC (Staphylococcus aureus [29]): > 100 µg/mL; MIC (Staphylococcus aureus [30]): 12.5 µg/mL; MIC [31]: 0.39 µg/mL; MIC (Staphylococcus aureus [32]): 6.2 µg/mL (≈ 7.8 µM) | CC[C@H]1OC(=O)[C@H](C)C[C@H](C)[C@@H](O[C@@H]2O[C@H](C)C[C@H](N(C)C)[C@H]2O)[C@](C)(OC)C[C@@H](C)C(=O)[C@H](C)[C@H]2N(CCc3ccc(Oc4ccccc4)cc3)C(=O)O[C@]12C
3 | 50 µg/mL (≈ 68.4 µM) | 0.02 µg/mL | 0.1 µg/mL (≈ 0.137 µM) | 0.02 µg/mL | 0.39 µg/mL | 0.39 µg/mL | > 100 µg/mL | 0.02 µg/mL (≈ 0.0274 µM) | 0.39 µg/mL (≈ 0.534 µM) | 1.56 µg/mL (≈ 2.13 µM) | 0.1 µg/mL | 0.05 µg/mL (≈ 0.0684 µM) | 1.56 µg/mL (≈ 2.13 µM) | 1.56 µg/mL (≈ 2.13 µM) | 1.56 µg/mL (≈ 2.13 µM) | 0.39 µg/mL | 0.39 µg/mL | 0.02 µg/mL | 50 µg/mL (≈ 68.4 µM) | 1.56 µg/mL (≈ 2.13 µM) | MIC (Escherichia coli [1]): 1.56 µg/mL (≈ 2.13 µM); MIC (Streptococcus pyogenes [2]): 0.2 µg/mL (≈ 0.274 µM); MIC (Streptococcus pyogenes [6]): 6.2 µg/mL; MIC (Escherichia coli [10]): 100 µg/mL; MIC (Escherichia coli [24]): > 100 µg/mL; MIC (Escherichia coli [27]): 0.39 µg/mL; MIC (Staphylococcus aureus [29]): > 100 µg/mL; MIC (Staphylococcus aureus [30]): 25 µg/mL; MIC [31]: 0.39 µg/mL; MIC (Staphylococcus aureus [32]): 1.56 µg/mL (≈ 2.13 µM) | CC[C@H]1OC(=O)[C@H](C)C[C@H](C)[C@@H](O[C@@H]2O[C@H](C)C[C@H](N(C)C)[C@H]2O)[C@](C)(OC)C[C@@H](C)C(=O)[C@H](C)[C@H]2N(CCCCc3ccccc3)C(=O)O[C@]12C
4 | > 100 µg/mL | 0.01 µg/mL | 25 µg/mL (≈ 41.5 µM) | 0.02 µg/mL | 0.39 µg/mL | 0.2 µg/mL | > 100 µg/mL | 3.1 µg/mL (≈ 5.14 µM) | 100 µg/mL (≈ 166 µM) | 100 µg/mL (≈ 166 µM) | 0.1 µg/mL | 6.2 µg/mL (≈ 10.3 µM) | 100 µg/mL (≈ 166 µM) | 100 µg/mL (≈ 166 µM) | 100 µg/mL (≈ 166 µM) | 0.39 µg/mL | 0.39 µg/mL | 0.01 µg/mL | > 100 µg/mL | 100 µg/mL (≈ 166 µM) | MIC (Escherichia coli [1]): 6.2 µg/mL (≈ 10.3 µM); MIC (Escherichia coli [10]): 50 µg/mL; MIC (Streptococcus pyogenes [20]): 100 µg/mL (≈ 166 µM); MIC (Escherichia coli [24]): > 100 µg/mL; MIC (Streptococcus pyogenes [25]): > 100 µg/mL; MIC (Escherichia coli [27]): 0.39 µg/mL; MIC (Staphylococcus aureus [29]): > 100 µg/mL; MIC (Staphylococcus aureus [30]): 6.2 µg/mL; MIC [31]: 0.2 µg/mL; MIC (Staphylococcus aureus [32]): 100 µg/mL (≈ 166 µM) | CC[C@H]1OC(=O)[C@H](C)C[C@H](C)[C@@H](O[C@@H]2O[C@H](C)C[C@H](N(C)C)[C@H]2O)[C@](C)(OC)C[C@@H](C)/C(=N\OC)[C@H](C)[C@@H](O)[C@]1(C)O
5 | > 100 µg/mL | 0.02 µg/mL | 0.39 µg/mL (≈ 0.625 µM) | 0.05 µg/mL | 0.39 µg/mL | 0.39 µg/mL | > 100 µg/mL | 0.39 µg/mL (≈ 0.625 µM) | 0.78 µg/mL (≈ 1.25 µM) | 6.2 µg/mL (≈ 9.94 µM) | 0.05 µg/mL | 0.39 µg/mL (≈ 0.625 µM) | 6.2 µg/mL (≈ 9.94 µM) | 12.5 µg/mL (≈ 20 µM) | 6.2 µg/mL (≈ 9.94 µM) | 0.39 µg/mL | 0.39 µg/mL | 0.05 µg/mL | > 100 µg/mL | 6.2 µg/mL (≈ 9.94 µM) | MIC (Streptococcus pyogenes [2]): 0.78 µg/mL (≈ 1.25 µM); MIC (Streptococcus pyogenes [6]): 6.2 µg/mL; MIC (Streptococcus pyogenes [20]): > 100 µg/mL; MIC (Streptococcus pyogenes [25]): > 100 µg/mL; MIC (Staphylococcus aureus [29]): > 100 µg/mL; MIC (Staphylococcus aureus [30]): 12.5 µg/mL; MIC [31]: 0.39 µg/mL; MIC (Staphylococcus aureus [32]): 6.2 µg/mL (≈ 9.94 µM) | CC[C@H]1OC(=O)[C@H](C)C[C@H](C)[C@@H](O[C@@H]2O[C@H](C)C[C@H](N(C)C)[C@H]2O)[C@](C)(OC)C[C@@H](C)C2=NCCN3C(=O)O[C@@]1(C)[C@H]3[C@H]2C
